Laboratory results: article PMC6353850, “Supersensitive Odorant Receptor Underscores Pleiotropic Roles of Indoles in Mosquito Ecology” (Frontiers in Cellular Neuroscience, 2019)
Where two headings read alike, the source gives them in different places.

Experiments:
AaegOR9 [1] = biological target: T1, AaegOR9 (Aedes aegypti, UniProt Q177X5); test: Two-electrode voltage clamp of Xenopus oocytes expressing AaegOR9-ORco (tuning curve and concentration-response); type: cell-based
Experimental: The methodologies and protocols have been described in details elsewhere (Bohbot and Dickens, [2009]). AaegOr9 and Aaeg-ORco cRNAs (Bohbot et al., [2011]) were synthesized from linearized pSP64DV expression vectors using the mMESSAGE mMACHINE® SP6 kit (Life Technologies). Stage V-VII oocytes were harvested from Xenopus laevis females, mechanically separated, treated with collagenase (8 mg/mL, 30 min, 18°C) and rinsed in washing solution (96 mM NaCl, 2 mM KCl, 5 mM MgCl2 and 5 mM HEPES, pH 7.6). Oocytes were microinjected with 27.6 ng AaegOr9 and AaegORco cRNAs, incubated at 18°C for 3–4 days in ND96 solution (96 mM NaCl, 2 mM KCl, 5 mM MgCl2, 0.8 mM CaCl2 and 5 mM HEPES, pH 7.6), supplemented with 5% dialyzed horse serum, 50 μg/mL tetracycline, 100 μg/mL streptomycin and 550 μg/mL sodium pyruvate. Whole-cell currents were recorded using the two-microelectrode voltage-clamp technique. During recording sessions, the holding potential was maintained at −80 mV using an OC-725C oocyte clamp (Warner Instruments, LLC, Hamden, CT, USA). Oocytes placed in a RC-3Z oocyte recording chamber (Warner Instruments, LLC, Hamden, CT, USA) were exposed to odorants for 8 s. Current was allowed to return to baseline between odorant applications. Data acquisition and concentration-response analyses were carried out with a Digidata 1550A and the pCLAMP10 software (Molecular Devices, Sunnyvale, CA, USA), and analyzed using GraphPad Prism 7 (GraphPad Software Inc., La Jolla, CA, USA). Stock concentration of odorants (10^−2 M) were dissolved in ringer solution containing 2% dimethyl sulfoxide (DMSO) in order to solubilize the hydrophobic indolic compounds.
The response profile was established using multiple sessions, each including six compounds at a time and indole as an internal reference. […] All the response values were normalized to the indole reference in each recording session (Supplementary Figure 1).
For the establishment of the concentration-response curves, oocytes were exposed to increasing concentrations of indole, skatole and indole-3-carboxaldehyde (I3C; Supplementary Figure 2). Quantitative characterization of OR sensitivity was estimated using the averaged effective concentration at 50% of the maximal response (EC50) over the sample population. The data to establish the concentration response curve and EC50 of AaegOR10-skatole was extracted from a previous study (Bohbot and Dickens, [2012]).
We also included indole and skatole as references (Bohbot et al., [2011]). The screen was carried out using a low odorant concentration (500 nM) in order to mitigate the caveats associated with high ligand concentrations, including receptor adaptation, antagonist effects and technical artifacts such as broad molecular receptive ranges (Bohbot and Pitts, [2015]).

AaegOR9 [2] = biological target: T1, AaegOR9; set-up: method as in Bohbot et al., 2011; conditions: ref Bohbot et al., 2011; cited from earlier work
OR02-ORco [3] = test system: OR02-ORco; set-up: method as in Bohbot et al., 2011; conditions: Aedes aegypti OR02-ORco; kairomone receptor; ref Bohbot et al., 2011; cited from earlier work
OR02-ORco [4] = test system: OR02-ORco; set-up: method as in Pelletier et al., 2010; conditions: Culex quinquefasciatus OR02-ORco; kairomone receptor; ref Pelletier et al., 2010; cited from earlier work
OR02-ORco [5] = test system: OR02-ORco; set-up: method as in Wang et al., 2010; conditions: Anopheles gambiae OR02-ORco; kairomone receptor; ref Wang et al., 2010; cited from earlier work

T1 sequence (Q178U6 whole entry): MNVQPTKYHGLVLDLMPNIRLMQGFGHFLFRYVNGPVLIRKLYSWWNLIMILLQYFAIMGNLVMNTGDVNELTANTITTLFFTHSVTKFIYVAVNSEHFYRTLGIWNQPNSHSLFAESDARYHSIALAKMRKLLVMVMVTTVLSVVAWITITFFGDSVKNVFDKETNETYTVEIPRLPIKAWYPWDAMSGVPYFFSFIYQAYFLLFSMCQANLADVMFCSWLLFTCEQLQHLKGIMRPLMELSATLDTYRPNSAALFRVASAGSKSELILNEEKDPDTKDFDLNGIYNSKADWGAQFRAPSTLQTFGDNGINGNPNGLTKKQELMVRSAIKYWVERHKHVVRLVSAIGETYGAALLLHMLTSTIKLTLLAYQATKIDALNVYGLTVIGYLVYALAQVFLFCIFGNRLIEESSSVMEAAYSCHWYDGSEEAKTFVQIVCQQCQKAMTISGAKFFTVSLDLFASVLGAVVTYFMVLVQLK
T1 sequence (Q177X5 entry or part of it): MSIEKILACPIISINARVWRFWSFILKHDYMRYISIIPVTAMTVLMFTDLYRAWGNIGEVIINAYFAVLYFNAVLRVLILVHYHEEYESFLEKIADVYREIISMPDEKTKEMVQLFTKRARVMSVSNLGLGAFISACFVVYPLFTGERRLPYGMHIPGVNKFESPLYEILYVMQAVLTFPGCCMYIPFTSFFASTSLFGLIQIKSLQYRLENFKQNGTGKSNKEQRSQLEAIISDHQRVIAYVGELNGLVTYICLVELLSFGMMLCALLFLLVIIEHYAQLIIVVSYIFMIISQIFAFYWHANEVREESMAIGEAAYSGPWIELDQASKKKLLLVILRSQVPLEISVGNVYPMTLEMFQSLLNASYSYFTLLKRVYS

SMILES: c1ccc2[nH]ccc2c1 [indole, 1H-indole]
- Ligand potency in AaegOR9 tuning curve (in words) (AaegOR9 [1]; 500 nM odorant, panel of 31 indole derivatives): next most potent ligands
- Rank according to potency (No.) (AaegOR9 [1]; AaegOR9 tuning curve of Figure 1, 500 nM, 1 = most potent of 31): 3
- Concentration range activating AaegOR9 (AaegOR9 [2]): low micromolar
- EC50 (OR02-ORco [3]): 370 nM
- EC50 (OR02-ORco [4]): 280 nM
- EC50 (OR02-ORco [5]): 167 nM
